Data set [1] deals with T1, hDDR1 (Homo sapiens, UniProt Q08345). Kind of data set: Rescreen in another biochemical assay (Thermo Fisher-PR6913A). The conditions noted are these: read-out: IC50 towards DDR1 kinase, rescreen. The protocol:
In the present example, six molecules were generated, selected, and synthesized and were submitted for biological testing (e.g., within 35 days). […] Since the dose-response curves for Compounds 2 and 4 seemed likely inconsistent, additional experiments were performed to confirm the activity of these molecules towards DDR1 kinase (see FIG. 4B). […] Compounds 1 and 2 were also evaluated towards DDR2 kinase.
FIGS. 4A-4B show the structures and dose-response curves for the generated molecules. The six generated compounds were tested in a dose-dependent manner against DDR1 tyrosine kinase.

The target of data set [2] is T1, hDDR1. The experiment in a line: KinaseProfiler radiometric biochemical kinase assay (Eurofins). More on the design: purchased Eurofins 14-942KP10. The conditions noted are these: for pIC50: read-out: IC50, inhibition of DDR1 activity. As to the method:
The experimental procedures were performed by Eurofins. The activity of the molecules against hDDR1 and hDDR2 kinases was assessed using KinaseProfiler^67. […] The enzymatic reaction processed in the presence of Mg^2+ cations and ATP at room temperature for 40 minutes and terminated by addition of phosphoric acid. […] All the compounds were prepared in 100% DMSO. […] The biological evaluation of selectivity against non-target kinases was performed in Dundee Eurofins, using Scan Max Delta Panel [10 μM ATP] KinaseProfiler^68.

Data set [3] has as its system α-actin expression in MRC-5 cells. The experiment in a line: MRC-5 fibrosis assay, TGF-β stimulated (Western blot). It counts as cell-based. The protocol:
(§1) After 20 h growth in the reduced serum medium, the cells were treated with indicated doses of compounds for 30 minutes. Subsequently, the cells were stimulated with 10 ng/mL TGF-β (R&D Systems, 240-B-002) for 48 or 72 hours.
On the technique in general: A western blot detects proteins with antibodies after separation by electrophoresis.

The nature of data set [4]: in vitro. The protocol: (§2) Cold acetonitrile (ACN) including 100 ng/mL Tolbutamide and 100 ng/mL Labetalol as internal standard (IS) were used for stop solution. 10 μL compound or control working solution/well was added to all plates (T0, T5, T10, T20, T30, T60, NCF60) except matrix blank. Dispense 80 μL/well microsome solution was added to every plate by Apricot, the mixture of microsome solution and compound were incubated at 37° C. for about 10 min. After pre-warming, dispense 10 μL/well NADPH regenerating system was added to every plate by Apricot to start reaction. The solution was then incubated at 37° C. 300 (μL/well) stop solution (cold in 4° C.) was added to terminate the reaction. The sampling plates were shaken for approximately 10 min. Samples were centrifuged at 4000 rpm for 20 min under 4° C. While centrifuging, 8×new 96-well plate were loaded with 300 μL HPLC water, then 100 μL supernatant was transferred and mixed for LC/MS/MS.

The nature of data set [5]: Microsomal stability (MLM). As to the method: as §2
In data set [6] the test system is CTGF expression in MRC-5 cells. The experiment in a line: MRC-5 fibrosis assay, TGF-β stimulated (Western blot). It counts as cell-based. The protocol: as §1
Data set [7] relates to collagen α1 production in LX-2 cells. Kind of data set: LX-2 fibrosis assay, TGF-β stimulated (Western blot). It counts as cell-based, human. The conditions noted are these: 0.5 to 10 μM. The protocol:
Collagen α1, α-SMA, CTGF and GAPDH were traced using Western blot analysis. DMSO and SB-525334 were used as negative and positive controls, respectively.
Human hepatic stellate cells LX-2 were grown in DMEM (Invitrogen, 11960) supplied with 1% MEM Non-Essential Amino Acids (Invitrogen, 11140-050), 2% fetal bovine serum (Hyclone, SV30087.03), Penicillin (100 U/mL)-streptomycin (100 μg/mL) (Millipore, TMS-AB2-C) and 2 mM L-Glutamine (Invitrogen, 25030-001). After the cells grew in 12-well plates for 24 h, the cell culture medium was changed to the same as above except using 0.4% fetal bovine serum. After 20 h growth in the reduced serum medium, the cells were treated with indicated doses of compounds for 30 minutes. Subsequently, the cells were stimulated with 4 ng/mL TGF-β (R&D Systems, 240-B-002) for 48 h. The cells were rinsed twice with DPBS before being harvested with 100 μL RIPA buffer (Sigma, R0278) supplemented with protease inhibitor cocktail (Roche, 04693132001) at 4° C. The total protein in each sample was quantified using BCA Protein Assay Kit (Pierce™, 23227) and equal amount of total protein of each sample was subject to Western blot analysis. Antibodies used were mouse anti-α-Actin (SPM332) (sc-365970), mouse anti-CTGF (E5) (sc-365970), and mouse anti-collagen al (3G3) (sc-293182), from Santa Cruz Biotechnologies; and mouse anti-GAPDH (6C5) (EMD Millipore, MAB374).

For data set [8], the system named is α-actin (α-SMA) production in LX-2 cells. Described as above. It counts as cell-based, human. To be noted: 0.5 to 10 μM. As to the method: Collagen α1, α-SMA, CTGF and GAPDH were traced using Western blot analysis.
After 20 h growth in the reduced serum medium, the cells were treated with indicated doses of compounds for 30 minutes.

As a reminder, the pIC50 is the negative decadic logarithm of the IC50, by convention in mol/L. Usually CLint scaled stands for the capacity of the preparation to metabolise the compound, expressed as a volume cleared per time. The half-life is the time needed for the level to fall by half in the phase considered.

pIC50: −log10 of the molar value. “Also recorded” adds a separate entry of the source.

T1 sequence (Q08345 19-913): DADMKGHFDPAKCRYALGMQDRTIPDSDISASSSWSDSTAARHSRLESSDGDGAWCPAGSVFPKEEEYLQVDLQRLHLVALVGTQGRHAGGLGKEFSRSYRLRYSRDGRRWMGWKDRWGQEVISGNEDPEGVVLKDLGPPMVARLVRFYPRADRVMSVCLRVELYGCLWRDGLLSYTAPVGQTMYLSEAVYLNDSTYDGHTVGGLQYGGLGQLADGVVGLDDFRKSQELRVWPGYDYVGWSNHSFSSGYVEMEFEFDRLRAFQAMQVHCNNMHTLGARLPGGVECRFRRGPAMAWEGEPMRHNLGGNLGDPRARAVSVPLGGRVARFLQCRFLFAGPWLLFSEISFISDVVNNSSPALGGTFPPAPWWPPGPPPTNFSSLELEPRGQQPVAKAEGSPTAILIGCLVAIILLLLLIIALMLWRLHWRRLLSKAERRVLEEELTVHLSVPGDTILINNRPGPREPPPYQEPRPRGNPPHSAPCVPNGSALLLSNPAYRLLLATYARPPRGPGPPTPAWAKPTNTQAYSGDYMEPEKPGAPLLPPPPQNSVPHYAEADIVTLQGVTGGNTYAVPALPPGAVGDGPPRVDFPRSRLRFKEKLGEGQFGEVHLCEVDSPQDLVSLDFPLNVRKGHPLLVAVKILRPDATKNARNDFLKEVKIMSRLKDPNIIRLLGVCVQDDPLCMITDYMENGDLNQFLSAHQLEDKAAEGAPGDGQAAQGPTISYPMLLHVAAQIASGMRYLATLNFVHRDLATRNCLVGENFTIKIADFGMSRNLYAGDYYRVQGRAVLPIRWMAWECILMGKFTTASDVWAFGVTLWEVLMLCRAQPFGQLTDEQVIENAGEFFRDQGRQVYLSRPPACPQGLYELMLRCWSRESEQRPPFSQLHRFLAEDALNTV

Turning to `Cc1cc2[nH]c(-c3cc(CN(C)C)cc(C(F)(F)F)c3)nc2cc1C#Cc1cncnc1` [Compound 4], the pIC50 was 6.81 in data set [1] and 6.56 in data set [2].

On to `O=C(CN1CCNC2(CCN(C(=O)c3ccc4[nH]ncc4c3)CC2)C1=O)Nc1cccc(F)c1` [Compound 5], for which the “activity against DDR1 kinase (in words)” value in data set [2] was “inactive”.

Regarding `Cc1nc(Nc2ncc(C(=O)Nc3c(C)cccc3Cl)s2)cc(N2CCN(CCO)CC2)n1` [Dasatinib, dasatinib], the “concentration of maximum inhibition of α-actin expression” value in data set [3] (MRC-5) worked out at 10 µM.

`O=C(O)Cc1ccccc1Nc1c(Cl)cccc1Cl` [Diclofenac, diclofenac]: the CLint scaled in data set [4] (Beagle, dog, microsomes) is less than 13.8 mL/min/kg; in data set [4] (SD, rat, microsomes), 106 mL/min/kg; in data set [4] (human, microsomes) it was 117 mL/min/kg. The “Remaining (*NCF = 60 min)” value was 96.9% in data set [4] (Beagle, dog, microsomes, 1 h); 89.8% in data set [4] (SD, rat, microsomes, 1 h); 87.9% in data set [4] (human, microsomes, 1 h); 91.8% in data set [5] (CD-1, mouse, microsomes, 1 h). In addition, the “Remaining (T = 60 min)” value in data set [4] (Beagle, dog, microsomes, 1 h) is 85.7%; in data set [4] (SD, rat, microsomes, 1 h) it was 17.5%; in data set [5] (CD-1, mouse, microsomes, 1 h), 50.2%.

`Cc1ccc(CNC(=O)Cc2cccc(F)c2)cc1-c1ccc2[nH]ncc2c1` [Compound 3]: the pIC50 in data set [2] was 6.00.

On to `Cc1cccc(-c2[nH]c(C(C)(C)C)nc2-c2ccc3nccnc3c2)n1` [SB-525334, reference compound], for which the “effect on CTGF expression” value in data set [6] (0.5 μM) is “no effect”. In addition, the “reduction of CTGF expression” value in data set [6] (10 μM) worked out at 1.5 fold. In data set [3] (0.5 μM, compared to TGF+DMSO stimulation), the “reduction in α-actin expression level” value amounted to 2 fold. For the same compound, in data set [3] (MRC-5), the “concentration of maximum inhibition of α-actin expression” value is 10 µM and the “dose dependence of effect on α-actin expression” value was “Unclear dose-dependent effect”. For the same compound, in data set [7], the “effect on collagen α1 expression” value was “strongly inhibited”. The “effect on α-actin expression” value in data set [8] was “strongly inhibited”.

In the case of `C[C@]12CC[C@H]3[C@@H](CCC4=CC(=O)CC[C@@]43C)[C@@H]1CC[C@@H]2O` [Testosterone, testosterone], the CLint scaled in data set [4] (Beagle, dog, microsomes) amounted to 114 mL/min/kg; in data set [4] (SD, rat, microsomes) it was 2360 mL/min/kg; in data set [4] (human, microsomes), 79.7 mL/min/kg; in data set [5] (CD-1, mouse, microsomes), 1620 mL/min/kg. For the same compound, the “Remaining (*NCF = 60 min)” value was determined as 88.6% in data set [4] (DLM 0.5, no co-factor); 82.4% in data set [4] (HLM 0.5, no co-factor); 86.8% in data set [4] (RLM 0.5, no co-factor); 75.4% in data set [5] (MLM 0.5, no co-factor). For the same compound, the “Remaining (T = 60 min)” value in data set [4] (DLM 0.5, with NADPH) was 9.5%; in data set [4] (HLM 0.5, with NADPH) it was 6.9%; in data set [4] (HLM 0.5, with NADPH, listed as testosterone) it was 6.9%; in data set [4] (RLM 0.5, with NADPH), 0.0%; in data set [5] (MLM 0.5, with NADPH), 0.0%. The half-life in data set [5] (CD-1, mouse, microsomes) worked out at 3.4 min.

Turning to `Cc1ccc(NC(=O)CN2CCC2C(F)(F)F)cc1NC(=O)c1cnn2c1CCC2` (stereo not shown) [Compound 6], the “activity against DDR1 kinase (in words)” value in data set [2] was “inactive; also recorded: did not demonstrate any activity”.

(Values after patent US12293809B2, “Workflow for generating compounds with biological activity against a specific biological target” (INSILICO MEDICINE IP LIMITED, priority 2019, dated 2025).)
